Source: the supplement of paper PMC10307832

How the values were obtained:
Assay in all cases: relative viability (nuclei count vs DMSO), 5 days (fraction); higher = more cells survive
Entinostat + Dasatinib = compound: Nc1ccccc1NC(=O)c1ccc(CNC(=O)OCc2cccnc2)cc1 [Entinostat] + Cc1nc(Nc2ncc(C(=O)Nc3c(C)cccc3Cl)s2)cc(N2CCN(CCO)CC2)n1 [Dasatinib] (partner 0.075 µM)
Method in brief: (§1)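 Lung cancer cell lines were pin-tool dosed in 1536-well plates on the day after seeding, with either a lone drug or a fixed anchor-drug dose plus five library-drug doses (not always all listed) in √10 steps. Nuclei were counted on 4× images after 5 days. Relative viability is the ratio of treated-well to vehicle-well nuclei counts, with each value a median of duplicate plates.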

Entinostat + Pemetrexed = compound: Nc1ccccc1NC(=O)c1ccc(CNC(=O)OCc2cccnc2)cc1 [Entinostat] + Nc1nc2[nH]cc(CCc3ccc(C(=O)N[C@@H](CCC(=O)O)C(=O)O)cc3)c2c(=O)[nH]1 [Pemetrexed] (partner 0.2 µM)
Method in brief: as §1

Entinostat + Navitoclax = compound: Nc1ccccc1NC(=O)c1ccc(CNC(=O)OCc2cccnc2)cc1 [Entinostat] + CC1(C)CCC(c2ccc(Cl)cc2)=C(CN2CCN(c3ccc(C(=O)NS(=O)(=O)c4ccc(N[C@H](CCN5CCOCC5)CSc5ccccc5)c(S(=O)(=O)C(F)(F)F)c4)cc3)CC2)C1 [Navitoclax] (partner 0.5 µM)
Method in brief: as §1

Entinostat + Foretinib = compound: Nc1ccccc1NC(=O)c1ccc(CNC(=O)OCc2cccnc2)cc1 [Entinostat] + COc1cc2c(Oc3ccc(NC(=O)C4(C(=O)Nc5ccc(F)cc5)CC4)cc3F)ccnc2cc1OCCCN1CCOCC1 [Foretinib] (partner 0.25 µM)
Method in brief: as §1

Cell Line	relative viability (Entinostat + Dasatinib; first compound 0.02 µM)	relative viability (Entinostat + Dasatinib; first compound 0.06325 µM)	relative viability (Entinostat + Dasatinib; first compound 0.2 µM)	relative viability (Entinostat + Dasatinib; first compound 0.6325 µM)	relative viability (Entinostat + Dasatinib; first compound 2 µM)	relative viability (Entinostat + Pemetrexed; first compound 0.02 µM)	relative viability (Entinostat + Pemetrexed; first compound 0.06325 µM)	relative viability (Entinostat + Pemetrexed; first compound 0.2 µM)	relative viability (Entinostat + Pemetrexed; first compound 0.6325 µM)	relative viability (Entinostat + Pemetrexed; first compound 2 µM)	relative viability (Entinostat + Navitoclax; first compound 0.02 µM)	relative viability (Entinostat + Navitoclax; first compound 0.06325 µM)	relative viability (Entinostat + Navitoclax; first compound 0.2 µM)	relative viability (Entinostat + Navitoclax; first compound 0.6325 µM)	relative viability (Entinostat + Navitoclax; first compound 2 µM)	relative viability (Entinostat + Foretinib; first compound 0.02 µM)	relative viability (Entinostat + Foretinib; first compound 0.06325 µM)	relative viability (Entinostat + Foretinib; first compound 0.2 µM)	relative viability (Entinostat + Foretinib; first compound 0.6325 µM)	relative viability (Entinostat + Foretinib; first compound 2 µM)
H3255	0.397	0.37	0.27	0.32	0.265	0.586	0.57	0.549	0.414	0.378	0.536	0.453	0.309	0.174	0.121	0.889	0.89	0.639	0.567	0.381
HARA	0.299	0.256	0.256	0.273	0.168	0.233	0.22	0.31	0.257	0.247	1.18	1.14	1.12	1.09	0.935	0.903	0.913	1.01	0.341	0.416
HCC-15	0.664	0.749	0.595	0.33	0.178	0.237	0.215	0.237	0.197	0.159	0.753	0.699	0.58	0.302	0.196	0.984	0.886	0.802	0.592	0.331
HCC-78	0.432	0.39	0.316	0.277	0.291	0.922	0.873	0.946	0.871	0.908	0.739	0.652	0.498	0.218	0.181	0.559	0.479	0.39	0.297	0.264
HCC-366	0.679	0.663	0.527	0.512	0.196	0.185	0.141	0.159	0.0978	0.0735	1.06	0.946	0.905	0.529	0.138	0.994	0.992	0.685	0.265	0.0997
HCC-827	0.255	0.269	0.23	0.227	0.294	0.268	0.265	0.227	0.229	0.187	1.03	0.93	0.812	0.595	0.386	0.954	0.962	0.83	0.737	0.355
HOP-62	0.718	0.682	0.588	0.29	0.161	0.23	0.301	0.286	0.229	0.188	1.08	0.923	0.832	0.607	0.217	1.11	0.983	0.995	0.609	0.356
LC-2-ad	0.516	0.533	0.428	0.222	0.165	0.286	0.276	0.28	0.302	0.33	0.387	0.289	0.264	0.17	0.134	0.907	0.905	0.723	0.512	0.338
